Assays:
[1] = In vitro potassium channel opening activity in A10 (smooth muscle) cells; Inactive; format: functional, cell-based, Rattus norvegicus
[2] = In vitro potassium channel opening activity in A10 (smooth muscle) cells; format: functional, cell-based, Rattus norvegicus
Rattus norvegicus = test: Effective dose required for lowering of blood pressure, when administered intravenously to CUP-anesthetized rats; format: functional; conditions: iv

| SMILES | EC50 [1] | EC50 [2] [nM] | ED30 (Rattus norvegicus) [µg/kg] |
| --- | --- | --- | --- |
| CCCNC1=NC(=O)[C@]2(CC(C)(C)Oc3ccc(Br)cc32)N1 | Not Active | – | – |
| CCCNC1=NC(=O)[C@@]2(CC(C)(C)Oc3ccc(Br)cc32)N1 | – | 4 | 2.5 |

Reference: ChEMBL document CHEMBL1128819, “Chiral spirocyclic benzopyran potassium channel openers: Evidence for the active conformation of levcromakalim” (Bioorg Med Chem Lett, 1995)
